Assay results: patent publication US20200060276A1, “THIAZOLE COMPOUND AND HERBICIDE” (OAT Agrio Co., Ltd., priority 2017, published 2020)

Tests used:
Type in all cases: in vivo
[1] = test system: Echinochloa crus-galli (L.) P. Beauv. var. formosensis Ohwi; assay: Test for Herbicidal Effect in Flooding Treatment (#2), ECHDG at 2-2.5 leaf stage; conditions: flooding treatment at 2-2.5 leaf stage, dose 0.2 kg/ha, visual observation on day 21
Method in brief: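 Scoring is a visual 0–5 scale of growth inhibition (0 below 10%, 5 at 90% or more or full withering), taken 21 days after treatment in a glasshouse. Dose was 0.2 kg/ha, applied as acetone/Tween 80 aqueous solution onto flooded soil once seedlings reached the 2–2.5 leaf stage.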

[2] = test system: Echinochloa crus-galli (L.) P. Beauv. var. formosensis Ohwi; assay: Test for Herbicidal Effect in Flooding Treatment (#1), ECHDG; conditions: flooding treatment at seeding, dose 2 kg/ha, visual observation on day 21
Method in brief: (§1)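 Visual scores from 0 (<10% inhibition) to 5 (≥90% or complete withering) were taken 21 days after treatment of glasshouse-grown plants. Seeds were sown in soil flooded for 24 h beforehand, and compound was applied dropwise onto the surface at 2 kg/ha as an acetone solution diluted in water with Tween 80.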

[3] = test system: Cyperus microiria; assay: Test for Herbicidal Effect in Flooding Treatment (#1), CYMIC; conditions: flooding treatment at seeding, dose 2 kg/ha, visual observation on day 21
Method in brief: as §1

[4] = test system: Monochoria vaginalis; assay: Test for Herbicidal Effect in Flooding Treatment (#1), MONVA; conditions: flooding treatment at seeding, dose 2 kg/ha, visual observation on day 21
Method in brief: as §1

[5] = test system: Scirpus juncoides; assay: Test for Herbicidal Effect in Flooding Treatment (#1), SCIJU; conditions: flooding treatment at seeding, dose 2 kg/ha, visual observation on day 21
Method in brief: as §1

Row | SMILES | ECHDG (2-2.5L) #2 herbicidal effect (growth inhibition grade) [1] | ECHDG #1 herbicidal effect (growth inhibition grade) [2] | CYMIC #1 herbicidal effect (growth inhibition grade) [3] | MONVA #1 herbicidal effect (growth inhibition grade) [4] | SCIJU #1 herbicidal effect (growth inhibition grade) [5]
1 | COc1ccccc1CS(=O)(=O)c1ncc(Cl)s1 [Compound 1C-2] | 5 (Growth inhibition effect is equal to or greater than 90%, or complete withering is achieved) | 5 (Growth inhibition effect is equal to or greater than 90%, or complete withering is achieved) | 5 (Growth inhibition effect is equal to or greater than 90%, or complete withering is achieved) | 5 (Growth inhibition effect is equal to or greater than 90%, or complete withering is achieved) | 5 (Growth inhibition effect is equal to or greater than 90%, or complete withering is achieved)
2 | CCCOc1cc(F)c(CS(=O)(=O)c2ncc(Cl)s2)c(F)c1 [Compound 1C-109] | 4 (Growth inhibition effect is equal to or greater than 70%, and less than 90%) | 5 (Growth inhibition effect is equal to or greater than 90%, or complete withering is achieved) | 5 (Growth inhibition effect is equal to or greater than 90%, or complete withering is achieved) |  | 5 (Growth inhibition effect is equal to or greater than 90%, or complete withering is achieved)
3 | CC(C)Oc1cc(F)c(CS(=O)(=O)c2ncc(Cl)s2)c(F)c1 [Compound 1C-111] | 5 (Growth inhibition effect is equal to or greater than 90%, or complete withering is achieved) | 5 (Growth inhibition effect is equal to or greater than 90%, or complete withering is achieved) | 5 (Growth inhibition effect is equal to or greater than 90%, or complete withering is achieved) |  | 5 (Growth inhibition effect is equal to or greater than 90%, or complete withering is achieved)
4 | CCCCOc1cc(F)c(CS(=O)(=O)c2ncc(Cl)s2)c(F)c1 [Compound 1C-112] | 3 (Growth inhibition effect equal to or greater than 50%, and less than 70%) | 5 (Growth inhibition effect is equal to or greater than 90%, or complete withering is achieved) | 5 (Growth inhibition effect is equal to or greater than 90%, or complete withering is achieved) |  | 5 (Growth inhibition effect is equal to or greater than 90%, or complete withering is achieved)
5 | CCCCOc1cc(Cl)c(CS(=O)(=O)c2ncc(Cl)s2)c(Cl)c1 [Compound 1C-113] | 5 (Growth inhibition effect is equal to or greater than 90%, or complete withering is achieved) | 5 (Growth inhibition effect is equal to or greater than 90%, or complete withering is achieved) | 5 (Growth inhibition effect is equal to or greater than 90%, or complete withering is achieved) |  | 5 (Growth inhibition effect is equal to or greater than 90%, or complete withering is achieved)
6 | O=S(=O)(Cc1ccc(OC(F)F)cc1)c1ncc(Cl)s1 [Compound 1C-114] | 1 (Growth inhibition effect is equal to or greater than 10%, and less than 30%) | 5 (Growth inhibition effect is equal to or greater than 90%, or complete withering is achieved) | 5 (Growth inhibition effect is equal to or greater than 90%, or complete withering is achieved) |  | 5 (Growth inhibition effect is equal to or greater than 90%, or complete withering is achieved)
7 | O=S(=O)(Cc1ccc(OC(F)(F)F)cc1)c1ncc(Cl)s1 [Compound 1C-115] | 1 (Growth inhibition effect is equal to or greater than 10%, and less than 30%) | 5 (Growth inhibition effect is equal to or greater than 90%, or complete withering is achieved) | 5 (Growth inhibition effect is equal to or greater than 90%, or complete withering is achieved) |  | 5 (Growth inhibition effect is equal to or greater than 90%, or complete withering is achieved)
8 | O=S(=O)(Cc1ccc(OC(F)(F)C(F)F)cc1)c1ncc(Cl)s1 [Compound 1C-116] | 3 (Growth inhibition effect equal to or greater than 50%, and less than 70%) | 5 (Growth inhibition effect is equal to or greater than 90%, or complete withering is achieved) | 5 (Growth inhibition effect is equal to or greater than 90%, or complete withering is achieved) |  | 5 (Growth inhibition effect is equal to or greater than 90%, or complete withering is achieved)
9 | COCOc1cc(F)c(CS(=O)(=O)c2ncc(Cl)s2)c(F)c1 [Compound 1C-118] | 4 (Growth inhibition effect is equal to or greater than 70%, and less than 90%) | 5 (Growth inhibition effect is equal to or greater than 90%, or complete withering is achieved) | 5 (Growth inhibition effect is equal to or greater than 90%, or complete withering is achieved) |  | 5 (Growth inhibition effect is equal to or greater than 90%, or complete withering is achieved)
10 | COc1cccc(CS(=O)(=O)c2ncc(Cl)s2)c1OC [Compound 1C-124] | 4 (Growth inhibition effect is equal to or greater than 70%, and less than 90%) | 5 (Growth inhibition effect is equal to or greater than 90%, or complete withering is achieved) | 5 (Growth inhibition effect is equal to or greater than 90%, or complete withering is achieved) |  | 5 (Growth inhibition effect is equal to or greater than 90%, or complete withering is achieved)
11 | COc1ccc(CS(=O)(=O)c2ncc(Cl)s2)c(OC)c1 [Compound 1C-125] | 5 (Growth inhibition effect is equal to or greater than 90%, or complete withering is achieved) | 5 (Growth inhibition effect is equal to or greater than 90%, or complete withering is achieved) | 5 (Growth inhibition effect is equal to or greater than 90%, or complete withering is achieved) |  | 5 (Growth inhibition effect is equal to or greater than 90%, or complete withering is achieved)
12 | COc1ccc(OC)c(CS(=O)(=O)c2ncc(Cl)s2)c1 [Compound 1C-126] | 3 (Growth inhibition effect equal to or greater than 50%, and less than 70%) | 5 (Growth inhibition effect is equal to or greater than 90%, or complete withering is achieved) | 5 (Growth inhibition effect is equal to or greater than 90%, or complete withering is achieved) |  | 5 (Growth inhibition effect is equal to or greater than 90%, or complete withering is achieved)
13 | COc1cc(CS(=O)(=O)c2ncc(Cl)s2)cc(OC)c1OC [Compound 1C-128] | 1 (Growth inhibition effect is equal to or greater than 10%, and less than 30%) | 5 (Growth inhibition effect is equal to or greater than 90%, or complete withering is achieved) | 5 (Growth inhibition effect is equal to or greater than 90%, or complete withering is achieved) |  | 4 (Growth inhibition effect is equal to or greater than 70%, and less than 90%)
14 | CN(C)c1cc(Cl)cc(CS(=O)(=O)c2ncc(Cl)s2)c1Cl [Compound 1C-170] | 5 (Growth inhibition effect is equal to or greater than 90%, or complete withering is achieved) | 5 (Growth inhibition effect is equal to or greater than 90%, or complete withering is achieved) | 5 (Growth inhibition effect is equal to or greater than 90%, or complete withering is achieved) |  | 5 (Growth inhibition effect is equal to or greater than 90%, or complete withering is achieved)
15 | N#Cc1cccc(CS(=O)(=O)c2ncc(Cl)s2)c1 [Compound 1C-171] | 3 (Growth inhibition effect equal to or greater than 50%, and less than 70%) | 5 (Growth inhibition effect is equal to or greater than 90%, or complete withering is achieved) | 5 (Growth inhibition effect is equal to or greater than 90%, or complete withering is achieved) |  | 5 (Growth inhibition effect is equal to or greater than 90%, or complete withering is achieved)
16 | N#Cc1ccc(CS(=O)(=O)c2ncc(Cl)s2)cc1 [Compound 1C-172] | 2 (Growth inhibition effect is equal to or greater than 30%, and less than 50%) | 5 (Growth inhibition effect is equal to or greater than 90%, or complete withering is achieved) | 5 (Growth inhibition effect is equal to or greater than 90%, or complete withering is achieved) |  | 5 (Growth inhibition effect is equal to or greater than 90%, or complete withering is achieved)
